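Five compound concentrations were applied to cells in 96-well plates for 48 hours; endpoints were derived by simple linear interpolation of the resulting dose-response curve. GI50: concentration for 50% inhibition of growth.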 Calls of active or inactive are those of the source. Rule as the data show it: active = GI50 up to about 1.1 µM and inactive = higher.
Key:
Test in all cases: NCI-60 cell line screen, 48 h
MOLT-4 = system: MOLT-4
IGROV-1 = system: IGROV-1
NCI-H460 = system: NCI-H460
Malme-3M = system: Malme-3M
786-0 = system: 786-0
TK-10 = system: TK-10
U-251 = system: U-251
SF-295 = system: SF-295
T47D = system: T47D
COLO 205 = system: COLO 205
HOP-92 = system: HOP-92
MDA-N = system: MDA-N
HCC 2998 = system: HCC 2998
A498 = system: A498
UACC-62 = system: UACC-62
SNB-75 = system: SNB-75
SK-OV-3 = system: SK-OV-3
UACC-257 = system: UACC-257
RXF 393 = system: RXF 393
SF-268 = system: SF-268

Compound	GI50 (MOLT-4)	GI50 (IGROV-1)	GI50 (NCI-H460)	GI50 (Malme-3M)	GI50 (786-0)	GI50 (TK-10)	GI50 (U-251)	GI50 (SF-295)	GI50 (T47D)	GI50 (COLO 205)	GI50 (HOP-92)	GI50 (MDA-N)	GI50 (HCC 2998)	GI50 (A498)	GI50 (UACC-62)	GI50 (SNB-75)	GI50 (SK-OV-3)	GI50 (UACC-257)	GI50 (RXF 393)	GI50 (SF-268)
COCCOC(C)C(=O)C(O)S(=O)(=O)O (stereo not given)	> 100 µM (inactive)	> 100 µM (inactive)	> 100 µM (inactive)	> 100 µM (inactive)	> 100 µM (inactive)	> 100 µM (inactive)	> 100 µM (inactive)	> 100 µM (inactive)	> 100 µM (inactive)	> 100 µM (inactive)	> 100 µM (inactive)	> 100 µM (inactive)	> 100 µM (inactive)	> 100 µM (inactive)	> 100 µM (inactive)	> 100 µM (inactive)	> 100 µM (inactive)	> 100 µM (inactive)	> 100 µM (inactive)	> 100 µM (inactive)
CCN(CC)CC/N=c1\c2cc(OC)ccc2[nH]c2c([N+](=O)[O-])ccc(NCCN(CC)CC)c12	0.198 µM (active)	2.34 µM (inactive)	0.386 µM (active)	1.82 µM (inactive)	0.399 µM (active)	2.11 µM (inactive)	1.24 µM (inactive)	1.26 µM (inactive)	> 7.38 µM (inactive)	0.875 µM (active)	1.83 µM (inactive)	1.12 µM (inactive)	0.718 µM (active)	2.3 µM (inactive)	5.26 µM (inactive)	1.9 µM (inactive)	3.12 µM (inactive)	4.17 µM (inactive)	1.26 µM (inactive)	2.27 µM (inactive)
N#C/C(=C\c1ccc2[nH]ccc2c1)C(=O)NCCCCNC(=O)/C(C#N)=C/c1ccc2[nH]ccc2c1	> 31.6 µM (inactive)	> 31.6 µM (inactive)	> 31.6 µM (inactive)	> 31.6 µM (inactive)	> 31.6 µM (inactive)	> 31.6 µM (inactive)	> 31.6 µM (inactive)	> 31.6 µM (inactive)	> 10 µM (inactive)	> 31.6 µM (inactive)	> 31.6 µM (inactive)	> 10 µM (inactive)	> 31.6 µM (inactive)	> 31.6 µM (inactive)	> 31.6 µM (inactive)	> 31.6 µM (inactive)	> 31.6 µM (inactive)	> 31.6 µM (inactive)	> 10 µM (inactive)	> 31.6 µM (inactive)
COC(=O)C(CCC(=O)CCl)N1C(=O)c2ccccc2C1=O (stereo not given)	2.38 µM (inactive)	12.4 µM (inactive)	12.2 µM (inactive)	4.57 µM (inactive)	4.05 µM (inactive)	14.5 µM (inactive)	14.4 µM (inactive)	17.7 µM (inactive)	6.25 µM (inactive)	15.6 µM (inactive)	5.78 µM (inactive)	7.43 µM (inactive)	8.18 µM (inactive)	19.5 µM (inactive)	10.8 µM (inactive)	8.13 µM (inactive)	16 µM (inactive)	7.18 µM (inactive)	2.39 µM (inactive)	9.42 µM (inactive)
